The values that follow are results of earlier work, collected in patent US5945105A, “Peptides of the antigen Sm-D and their use, in particular for the diagnostics of systemic lupus erythematosus (SLE)” (Imtec Immundiagnostika GmbH, priority 1995, dated 1999).

This data set concerns anti-SmD antibody-positive sera / SLE sera. The conditions noted are these: cited from earlier work; for anti-SmD antibody-positive sera that reacted with the peptide: 18 anti-SmD antibody-positive sera (immuno blotting); for positive reactions in the ELISA, SLE sera: 165 SLE sera. For orientation: In an ELISA, binding on a coated surface is turned into a signal by an enzyme label.

Take “1-20: first region of the SmD protein, amino acids 1 through 20 (Barakat et al.) (MKLVRFLMKLSHETVTIELK; UniProt P62314 1-20, looked up, fragment) [Peptide 1-20]”: the “anti-SmD antibody-positive sera that reacted with the peptide” value was 67% and the “positive reactions in the ELISA, SLE sera” value (“positive reactions” for short) is listed as 59%.
For the substance “44-67: second region of the SmD protein, amino acids 44 through 67 (Barakat et al.) (KMTLKNREPVQLETLSIRGNNIRY; UniProt P62314 44-67, looked up, fragment) [Peptide 44-67]”, the “anti-SmD antibody-positive sera that reacted with the peptide” value was 89% and the “positive reactions” value was 37%.
On to “97-119: third region of the SmD protein, amino acids 97 through 119 (Barakat et al.) (GRGRGRGRGRGRGRGRGRGGPRR; UniProt P62314 97-119, looked up, fragment) [Peptide 97-119]”, for which the “anti-SmD antibody-positive sera that reacted with the peptide” value was 33% and the “positive reactions” value is 1%.
